In brackets after ≈: the same amount, converted by molar mass.
What was measured:
Format in all cases: functional
Pseudomonas aeruginosa [1] = test: Compound was evaluated for antibacterial activity against Pseudomonas aeruginosa 9027.
Escherichia coli [2] = test: Compound was evaluated for antibacterial activity against Escherichia coli DC 0.
Pseudomonas aeruginosa [3] = test: Compound was evaluated for antibacterial activity against Pseudomonas aeruginosa 1771.
Staphylococcus aureus [4] = test: Compound was evaluated for antibacterial activity against Staphylococcus aureus C2379 (MRSA).
Enterobacter cloacae = test: Compound was evaluated for antibacterial activity against Enterobacter cloacae P99.
Escherichia coli [5] = test: Compound was evaluated for antibacterial activity against Escherichia coli DC 2.
Proteus vulgaris = test: Compound was evaluated for antibacterial activity against Proteus vulgaris GN76.
Serratia marcescens = test: Compound was evaluated for antibacterial activity against Serratia marcescens IFO 12648.
Streptococcus pyogenes = test: Compound was evaluated for antibacterial activity against Streptococcus pyogenes A77.
Staphylococcus aureus [6] = test: Compound was evaluated for antibacterial activity against Staphylococcus aureus Smith.
Klebsiella pneumoniae = test: Compound was evaluated for antibacterial activity against Klebsiella pneumoniae NCTC 9632.
Pseudomonas aeruginosa [7] = test: Compound was evaluated for antibacterial activity against Pseudomonas aeruginosa 1771M.
Pseudomonas aeruginosa [8] = test: Compound was evaluated for antibacterial activity against Pseudomonas aeruginosa C-1198.
Streptococcus pneumoniae = test: Compound was evaluated for antibacterial activity against Streptococcus pneumoniae type I.

**Q.** How did the MIC (Pseudomonas aeruginosa [1]) turn out when CC(=O)N(O)CCO/N=C(\C(=O)N[C@@H]1C(=O)N2C(C(=O)O)=C(CSc3nc(C)c(CC(=O)O)s3)CS[C@H]12)c1csc(N)n1 was run?
**A.** 12.5 µg/mL (≈ 18.6 µM)

**Q.** What about the MIC (Escherichia coli [2]) of the same compound?
**A.** 0.781 µg/mL (≈ 1.16 µM)

**Q.** And the MIC (Pseudomonas aeruginosa [3])?
**A.** 3.12 µg/mL (≈ 4.65 µM)

**Q.** And the MIC (Staphylococcus aureus [4])?
**A.** 100 µg/mL (≈ 149 µM)

**Q.** And the MIC (Enterobacter cloacae)?
**A.** 50 µg/mL (≈ 74.4 µM)

**Q.** And the MIC (Escherichia coli [5])?
**A.** 0.098 µg/mL (≈ 0.146 µM)

**Q.** What about the MIC (Proteus vulgaris) of the same compound?
**A.** 0.049 µg/mL (≈ 0.0729 µM)

**Q.** And the MIC (Serratia marcescens)?
**A.** 1.56 µg/mL (≈ 2.33 µM)

**Q.** What about the MIC (Streptococcus pyogenes) of the same compound?
**A.** 0.013 µg/mL (≈ 0.0194 µM)

**Q.** And the MIC (Staphylococcus aureus [6])?
**A.** 12.5 µg/mL (≈ 18.6 µM)

**Q.** And the MIC (Klebsiella pneumoniae)?
**A.** 0.098 µg/mL (≈ 0.146 µM)

**Q.** What about the MIC (Pseudomonas aeruginosa [7]) of the same compound?
**A.** 0.391 µg/mL (≈ 0.582 µM)

**Q.** And the MIC (Pseudomonas aeruginosa [8])?
**A.** 50 µg/mL (≈ 74.4 µM)

**Q.** What about the MIC (Streptococcus pneumoniae) of the same compound?
**A.** 0.049 µg/mL (≈ 0.0729 µM)

**Q.** Which results are given for CC(=O)N(O)CCO/N=C(\C(=O)N[C@@H]1C(=O)N2C(C(=O)[O-])=C(C[n+]3ccccc3)CS[C@H]12)c1csc(N)n1?
**A.** MIC (Pseudomonas aeruginosa [1]): 6.25 µg/mL (≈ 11.1 µM); MIC (Escherichia coli [2]): 0.781 µg/mL (≈ 1.39 µM); MIC (Pseudomonas aeruginosa [3]): 0.781 µg/mL (≈ 1.39 µM); MIC (Staphylococcus aureus [4]): 12.5 µg/mL (≈ 22.3 µM); MIC (Enterobacter cloacae): 25 µg/mL (≈ 44.5 µM); MIC (Escherichia coli [5]): 0.195 µg/mL (≈ 0.347 µM); MIC (Proteus vulgaris): 0.781 µg/mL (≈ 1.39 µM); MIC (Serratia marcescens): 0.391 µg/mL (≈ 0.696 µM); MIC (Streptococcus pyogenes): 0.007 µg/mL (≈ 0.0125 µM); MIC (Staphylococcus aureus [6]): 3.12 µg/mL (≈ 5.56 µM); MIC (Klebsiella pneumoniae): 0.098 µg/mL (≈ 0.175 µM); MIC (Pseudomonas aeruginosa [7]): 0.391 µg/mL (≈ 0.696 µM); MIC (Pseudomonas aeruginosa [8]): 25 µg/mL (≈ 44.5 µM); MIC (Streptococcus pneumoniae): 0.049 µg/mL (≈ 0.0873 µM)

**Q.** What does the source list for CC(=O)N(O)CCO/N=C(\C(=O)N[C@@H]1C(=O)N2C(C(=O)[O-])=C(CSc3cccc4[n+]3CCN4)CS[C@H]12)c1csc(N)n1?
**A.** MIC (Pseudomonas aeruginosa [1]): 12.5 µg/mL (≈ 19.7 µM); MIC (Escherichia coli [2]): 1.56 µg/mL (≈ 2.46 µM); MIC (Pseudomonas aeruginosa [3]): 3.12 µg/mL (≈ 4.92 µM); MIC (Staphylococcus aureus [4]): 12.5 µg/mL (≈ 19.7 µM); MIC (Enterobacter cloacae): 50 µg/mL (≈ 78.8 µM); MIC (Escherichia coli [5]): 1.56 µg/mL (≈ 2.46 µM); MIC (Proteus vulgaris): 3.12 µg/mL (≈ 4.92 µM); MIC (Serratia marcescens): 3.12 µg/mL (≈ 4.92 µM); MIC (Streptococcus pyogenes): 0.025 µg/mL (≈ 0.0394 µM); MIC (Staphylococcus aureus [6]): 1.56 µg/mL (≈ 2.46 µM); MIC (Klebsiella pneumoniae): 0.025 µg/mL (≈ 0.0394 µM); MIC (Pseudomonas aeruginosa [7]): 3.12 µg/mL (≈ 4.92 µM); MIC (Pseudomonas aeruginosa [8]): 50 µg/mL (≈ 78.8 µM); MIC (Streptococcus pneumoniae): 0.025 µg/mL (≈ 0.0394 µM)

**Q.** Which results are given for CC(=O)N(O)CCO/N=C(\C(=O)N[C@@H]1C(=O)N2C(C(=O)[O-])=C(C[n+]3cccc4c3CCC4)CS[C@H]12)c1csc(N)n1?
**A.** MIC (Pseudomonas aeruginosa [1]): 6.25 µg/mL (≈ 10.4 µM); MIC (Escherichia coli [2]): 0.391 µg/mL (≈ 0.65 µM); MIC (Pseudomonas aeruginosa [3]): 1.56 µg/mL (≈ 2.6 µM); MIC (Staphylococcus aureus [4]): 6.25 µg/mL (≈ 10.4 µM); MIC (Enterobacter cloacae): 25 µg/mL (≈ 41.6 µM); MIC (Escherichia coli [5]): 0.195 µg/mL (≈ 0.324 µM); MIC (Proteus vulgaris): 1.56 µg/mL (≈ 2.6 µM); MIC (Serratia marcescens): 0.781 µg/mL (≈ 1.3 µM); MIC (Streptococcus pyogenes): 0.004 µg/mL (≈ 0.00665 µM); MIC (Staphylococcus aureus [6]): 0.781 µg/mL (≈ 1.3 µM); MIC (Klebsiella pneumoniae): 0.195 µg/mL (≈ 0.324 µM); MIC (Pseudomonas aeruginosa [7]): 0.781 µg/mL (≈ 1.3 µM); MIC (Pseudomonas aeruginosa [8]): 50 µg/mL (≈ 83.1 µM); MIC (Streptococcus pneumoniae): 0.025 µg/mL (≈ 0.0416 µM)

**Q.** CC(=O)N(O)CCO/N=C(\C(=O)N[C@@H]1C(=O)N2C(C(=O)[O-])=C(C[n+]3ccc(CN(O)C(C)=O)cc3)CS[C@H]12)c1csc(N)n1 was tested. Which MIC (Pseudomonas aeruginosa [1]) did it give?
**A.** 50 µg/mL (≈ 77.1 µM)

**Q.** What about the MIC (Escherichia coli [2]) of the same compound?
**A.** 12.5 µg/mL (≈ 19.3 µM)

**Q.** And the MIC (Pseudomonas aeruginosa [3])?
**A.** 25 µg/mL (≈ 38.5 µM)

**Q.** What about the MIC (Staphylococcus aureus [4]) of the same compound?
**A.** 50 µg/mL (≈ 77.1 µM)

**Q.** What about the MIC (Enterobacter cloacae) of the same compound?
**A.** 50 µg/mL (≈ 77.1 µM)

**Q.** And the MIC (Escherichia coli [5])?
**A.** 0.391 µg/mL (≈ 0.603 µM)

**Q.** What about the MIC (Proteus vulgaris) of the same compound?
**A.** 6.25 µg/mL (≈ 9.63 µM)

**Q.** What about the MIC (Serratia marcescens) of the same compound?
**A.** 12.5 µg/mL (≈ 19.3 µM)

**Q.** And the MIC (Streptococcus pyogenes)?
**A.** 0.007 µg/mL (≈ 0.0108 µM)

**Q.** What about the MIC (Staphylococcus aureus [6]) of the same compound?
**A.** 12.5 µg/mL (≈ 19.3 µM)

**Q.** And the MIC (Klebsiella pneumoniae)?
**A.** 0.781 µg/mL (≈ 1.2 µM)

**Q.** And the MIC (Pseudomonas aeruginosa [7])?
**A.** 6.25 µg/mL (≈ 9.63 µM)

**Q.** And the MIC (Pseudomonas aeruginosa [8])?
**A.** > 100 µg/mL

**Q.** And the MIC (Streptococcus pneumoniae)?
**A.** 0.049 µg/mL (≈ 0.0755 µM)

**Q.** What does the source list for CC(C)(O/N=C(\C(=O)N[C@@H]1C(=O)N2C(C(=O)[O-])=C(C[n+]3ccccc3)CS[C@H]12)c1csc(N)n1)C(=O)O [CEFTAZIDIME]?
**A.** MIC (Pseudomonas aeruginosa [1]): 3.12 µg/mL (≈ 5.72 µM); MIC (Escherichia coli [2]): 0.195 µg/mL (≈ 0.357 µM); MIC (Pseudomonas aeruginosa [3]): 0.781 µg/mL (≈ 1.43 µM); MIC (Staphylococcus aureus [4]): 50 µg/mL (≈ 91.5 µM); MIC (Enterobacter cloacae): > 100 µg/mL; MIC (Escherichia coli [5]): 0.098 µg/mL (≈ 0.179 µM); MIC (Proteus vulgaris): 0.049 µg/mL (≈ 0.0896 µM); MIC (Serratia marcescens): 0.098 µg/mL (≈ 0.179 µM); MIC (Streptococcus pyogenes): 0.098 µg/mL (≈ 0.179 µM); MIC (Staphylococcus aureus [6]): 6.25 µg/mL (≈ 11.4 µM); MIC (Klebsiella pneumoniae): 0.049 µg/mL (≈ 0.0896 µM); MIC (Pseudomonas aeruginosa [7]): 0.391 µg/mL (≈ 0.715 µM); MIC (Pseudomonas aeruginosa [8]): > 100 µg/mL; MIC (Streptococcus pneumoniae): 0.195 µg/mL (≈ 0.357 µM)

— ChEMBL document CHEMBL1129155, “Synthesis and antibacterial activity of cephalosporins having hydroxamic acid at C-7 position” (1996)
